Measured values published in publication PMC6934700, “Structure-Guided Design of a Fluorescent Probe for the Visualization of FtsZ in Clinically Important Gram-Positive and Gram-Negative Bacterial Pathogens” (Scientific Reports, 2019).
Where two headings read alike, the source gives them in different places.

Legend:
Conditions in all cases: for Kd: 50 mM Tris-HCl (pH 7.6), 50 mM KCl, 0.1 µM BOFP
[1] = target: K. pneumoniae (KpFtsZ) (Klebsiella pneumoniae, UniProt A0A0H3GRR0); test: Fluorescence anisotropy binding of BOFP to KpFtsZ
Method: (§1) Fluorescence anisotropy experiments were performed using an AVIV model ATF105 spectrofluorometer at 15, 25, or 37 °C. In these experiments, bandwidths were set to 4 nm in both the excitation and emission directions, with the excitation and emission wavelengths being set at 488 nm and 510 nm, respectively. BOFP (0.1 µM) was titrated with increasing concentrations (ranging from 0 to 12 µM) of FtsZ in 120 µL of buffer containing 50 mM Tris-HCl (pH 7.6) and 50 mM KCl. After each protein addition, the samples were equilibrated for 3 minutes, whereupon the fluorescence anisotropy was measured.
(§2) In this equation, r0 is the anisotropy of the protein-free compound, r∞ is the anisotropy of the compound in the presence of an infinite concentration of FtsZ, [C]tot is the total concentration of the compound, and [P]tot is the total concentration of protein with each addition. These analyses yielded the equilibrium dissociation constant (Kd) for each binding reaction.
(§3) The binding free energy (ΔG) at temperature T was derived from the corresponding Kd value determined at T using the following relationship:2 ΔG=−RTln(1/Kd)
(§4) The binding enthalpy (ΔH) and entropy (ΔS) were derived from linear fits of the ln(1/Kd) vs. 1/T plots shown in Figs. 3f and 5e using the following relationship:3 ln(1/Kd)=−ΔH/R(1/T)+ΔS/R
(§5) In comparative control experiments, the anisotropy of 0.1 µM BODIPY FL-COOH or BOFP alone or in the presence of SaFtsZ (10 µM), SpyFtsZ (10 µM), KpFtsZ (2 µM), or PaFtsZ (2 µM) was measured at 37 °C in the same buffer described above.

[2] = target: S. pyogenes (SpyFtsZ) (Streptococcus pyogenes, UniProt Q99YV7); test: Fluorescence anisotropy binding of BOFP to SpyFtsZ
Method: as §1, §2, §3, §4, §5

[3] = target: T1, E. faecium (EfmFtsZ) (Enterococcus faecium, UniProt Q3Y2I1); test: Fluorescence anisotropy binding of BOFP to EfmFtsZ
T1 sequence (Q3Y2I1 1-413): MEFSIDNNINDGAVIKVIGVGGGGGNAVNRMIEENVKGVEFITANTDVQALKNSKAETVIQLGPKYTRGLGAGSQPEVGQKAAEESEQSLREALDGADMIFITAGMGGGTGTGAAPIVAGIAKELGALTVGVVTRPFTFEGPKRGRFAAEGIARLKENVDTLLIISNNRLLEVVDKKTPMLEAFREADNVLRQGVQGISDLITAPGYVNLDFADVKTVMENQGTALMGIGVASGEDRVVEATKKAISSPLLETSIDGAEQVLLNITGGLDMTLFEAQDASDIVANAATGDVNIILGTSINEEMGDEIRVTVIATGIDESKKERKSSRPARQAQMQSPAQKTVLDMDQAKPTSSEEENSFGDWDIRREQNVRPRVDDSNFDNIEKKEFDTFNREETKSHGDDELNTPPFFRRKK
Method: as §1, §2, §3, §4

[4] = target: E. faecalis (EfsFtsZ) (Enterococcus faecalis, UniProt O08439); test: Fluorescence anisotropy binding of BOFP to EfsFtsZ
Method: as §1, §2, §3, §4

[5] = calculated at T = 310 K (37 °C) from Kd
[6] = from linear fit of ln(1/Kd) vs. 1/T

Sequence of E. faecalis (EfsFtsZ) (O08439 whole entry): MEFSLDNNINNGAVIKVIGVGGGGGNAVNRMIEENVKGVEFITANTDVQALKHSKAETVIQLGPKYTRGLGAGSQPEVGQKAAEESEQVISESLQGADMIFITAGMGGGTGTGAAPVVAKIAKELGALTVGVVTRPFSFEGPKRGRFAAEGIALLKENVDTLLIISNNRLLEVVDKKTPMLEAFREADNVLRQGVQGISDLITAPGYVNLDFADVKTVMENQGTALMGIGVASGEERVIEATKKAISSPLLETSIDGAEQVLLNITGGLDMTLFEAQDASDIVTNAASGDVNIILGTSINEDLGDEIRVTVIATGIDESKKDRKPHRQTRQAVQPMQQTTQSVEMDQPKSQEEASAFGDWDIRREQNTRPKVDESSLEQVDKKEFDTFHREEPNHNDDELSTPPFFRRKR
Sequence of S. pyogenes (SpyFtsZ) (Q99YV7 entry or part of it): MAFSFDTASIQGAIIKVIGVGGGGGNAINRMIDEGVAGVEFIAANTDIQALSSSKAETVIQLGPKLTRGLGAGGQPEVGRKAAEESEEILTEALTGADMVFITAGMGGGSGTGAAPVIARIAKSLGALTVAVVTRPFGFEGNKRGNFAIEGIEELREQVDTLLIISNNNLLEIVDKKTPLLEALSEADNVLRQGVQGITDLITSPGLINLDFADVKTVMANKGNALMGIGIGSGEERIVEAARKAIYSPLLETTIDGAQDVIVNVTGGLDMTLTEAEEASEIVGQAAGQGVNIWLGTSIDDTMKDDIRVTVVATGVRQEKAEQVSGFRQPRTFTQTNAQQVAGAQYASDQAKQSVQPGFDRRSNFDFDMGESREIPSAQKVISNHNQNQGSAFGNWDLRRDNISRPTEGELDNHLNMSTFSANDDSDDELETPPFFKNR
Sequence of K. pneumoniae (KpFtsZ) (A0A0H3GRR0 entry or part of it): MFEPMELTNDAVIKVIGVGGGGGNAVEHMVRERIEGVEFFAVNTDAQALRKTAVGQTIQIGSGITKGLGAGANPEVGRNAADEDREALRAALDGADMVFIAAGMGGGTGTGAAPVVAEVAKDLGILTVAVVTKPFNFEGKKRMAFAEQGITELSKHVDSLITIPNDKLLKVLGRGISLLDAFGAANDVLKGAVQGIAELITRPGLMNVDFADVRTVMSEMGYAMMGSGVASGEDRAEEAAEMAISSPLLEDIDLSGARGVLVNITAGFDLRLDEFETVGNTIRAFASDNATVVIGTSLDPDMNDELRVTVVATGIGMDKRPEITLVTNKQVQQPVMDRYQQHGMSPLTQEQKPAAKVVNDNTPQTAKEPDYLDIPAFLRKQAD

CC1=CC(C)=[N+]2C1=Cc1ccc(CCC(=O)OCC(Oc3ccc(F)c(C(N)=O)c3F)c3nc(-c4ccc(C(F)(F)F)cc4)c(Br)o3)n1[B-]2(F)F (centres unmarked) [BOFP]
Kd ([1]; 15 °C, read-out: Kd - 15 °C): 420 ± 50 nM | Kd ([1]; 25 °C, read-out: Kd - 25 °C): 580 ± 40 nM | Kd ([1]; 37 °C, read-out: Kd - 37 °C): 820 ± 40 nM | ΔG [1, 5]: -8.6 ± 0.1 kcal/mol | ΔH [1, 6]: -5.4 ± 0.1 kcal/mol | Kd ([2]; 15 °C, read-out: Kd - 15 °C): 910 ± 60 nM | Kd ([2]; 25 °C, read-out: Kd - 25 °C): 1310 ± 80 nM | Kd ([2]; 37 °C, read-out: Kd - 37 °C): 1550 ± 80 nM | ΔG [2, 5]: -8.2 ± 0.1 kcal/mol | ΔH [2, 6]: -4.3 ± 1.1 kcal/mol | Kd ([3]; 15 °C, read-out: Kd - 15 °C): 2500 ± 140 nM | Kd ([3]; 25 °C, read-out: Kd - 25 °C): 2620 ± 80 nM | Kd ([3]; 37 °C, read-out: Kd - 37 °C): 3140 ± 220 nM | ΔH [3, 6]: -1.9 ± 0.6 kcal/mol | Kd ([4]; Kd - 15 °C, 15 °C): 1720 ± 60 nM | Kd ([4]; Kd - 25 °C, 25 °C): 3050 ± 250 nM | Kd ([4]; Kd - 37 °C, 37 °C): 4620 ± 120 nM | ΔG [4, 5]: -7.6 ± 0.1 kcal/mol | ΔH [4, 6]: -7.9 ± 1.0 kcal/mol | ΔS [4, 6]: −1.2 ± 3.3 cal/mol•K
